Columns and labels:
PDGFR = target: T1, PDGFR (Homo sapiens, UniProt P09619); experiment: PDGFR bioassay (ELISA, in vitro kinase activity); format: biochemical; details: PDGFR-β expressing NIH 3T3 cell lysate; read-out: IC50 (μM) PDGF-R
T1 construct: SUGEN, Inc; host or cells: NIH 3T3 cell lysate; receptor captured on plate with monoclonal anti-PDGFR antibody 28D4C10

GST-Flk1 = target: T2, GST-Flk1 (Mus musculus, UniProt P35918); experiment: GST-FLK-1 bioassay (ELISA, tyrosine kinase activity on poly(glu,tyr)); format: biochemical
T2 construct: GST-Flk1cd purified from sf9 recombinant baculovirus transformation (SUGEN, Inc.); host or cells: Sf9 insect cells (recombinant baculovirus)
T2 sequence (P35918 784-1345 limits assumed): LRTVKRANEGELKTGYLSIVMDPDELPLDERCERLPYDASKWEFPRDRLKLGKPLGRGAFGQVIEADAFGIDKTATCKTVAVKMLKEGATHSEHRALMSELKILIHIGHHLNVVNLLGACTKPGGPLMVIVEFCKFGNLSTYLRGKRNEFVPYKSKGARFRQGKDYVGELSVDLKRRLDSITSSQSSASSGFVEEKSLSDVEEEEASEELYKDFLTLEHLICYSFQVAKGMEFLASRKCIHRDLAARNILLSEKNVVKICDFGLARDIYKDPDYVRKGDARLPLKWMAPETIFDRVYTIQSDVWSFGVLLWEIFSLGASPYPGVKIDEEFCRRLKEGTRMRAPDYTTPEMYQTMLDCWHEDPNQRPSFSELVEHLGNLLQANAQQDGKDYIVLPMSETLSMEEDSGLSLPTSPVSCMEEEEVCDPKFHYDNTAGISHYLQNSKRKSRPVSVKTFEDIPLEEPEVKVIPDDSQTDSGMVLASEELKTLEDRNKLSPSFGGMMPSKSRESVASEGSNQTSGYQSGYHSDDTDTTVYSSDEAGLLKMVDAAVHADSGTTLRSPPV
Method: The assays described herein are performed in an ELISA (Enzyme-Linked Immunosorbent Sandwich Assay) format (Voller, et al., 1980, “Enzyme-Linked Immunosorbent Assay,” Manual of Clinical Immunology, 2d ed., Rose and Friedman, Am. Soc. Of Microbiology, Washington, D.C., pp. 359-371). The general procedure is as follows: a compound is introduced to cells expressing the test kinase, either naturally or recombinantly, for a selected period of time after which, if the test kinase is a receptor, a ligand known to activate the receptor is added. The cells are lysed and the lysate is transferred to the wells of an ELISA plate previously coated with a specific antibody recognizing the substrate of the enzymatic phosphorylation reaction. Non-substrate components of the cell lysate are washed away and the amount of phosphorylation on the substrate is detected with an antibody specifically recognizing phosphotyrosine compared with control cells that were not contacted with a test compound.
This assay analyzes the tyrosine kinase activity of GST-Flk1 on poly(glu,tyr) peptides.
• 1. Corning 96-well ELISA plates (Corning Catalog No. 5805-96). • 2. poly(glu,tyr) 4:1, lyophilizate (Sigma Catalog #P0275). • 3. Preparation of poly(glu,tyr)(pEY) coated assay plates: Coat 2 ug/well of poly(glu,tyr)(pEY) in 100 μL PBS, hold at room temperature for 2 hours or at 4° C. overnight. Cover plates well to prevent evaporation. • 4. PBS Buffer: for 1 L, mix 0.2 g KH2PO4, 1.15 g Na2HPO4, 0.2 g KCl and 8 g NaCl in approx. 900 ml dH2O. When all reagents have dissolved, adjust the pH to 7.2 with HCl. Bring total volume to 1 L with dH2O. • 5. PBST Buffer: to 1 L of PBS Buffer, add 1.0 ml Tween-20. • 6. TBB—Blocking Buffer: for 1 L, mix 1.21 g TRIS, 8.77 g NaCl, 1 ml TWEEN-20 in approximately 900 ml dH2O. Adjust pH to 7.2 with HCl. Add 10 g BSA, stir to dissolve. Bring total volume to 1 L with dH2O. Filter to remove particulate matter. • 7. 1% BSA in PBS: To make a 1× working solution, add 10 g BSA to approx. 990 ml PBS buffer, stir to dissolve. Adjust total volume to 1 L with PBS buffer, filter to remove particulate matter. • 8. 50 mM Hepes pH 7.5. • 9. GST-Flk1cd purified from sf9 recombinant baculovirus transformation (SUGEN, Inc.). • 10. 4% DMSO in dH2O. • 11. 10 mMATP in dH2O. • 12. 40 mM MnCl2 • 13. Kinase Dilution Buffer (KDB): mix 10 ml Hepes (pH 7.5), 1 ml 5M NaCl, 40 μL 100 mM sodium orthovanadate and 0.4 ml of 5% BSA in dH2O with 88.56 ml dH2O. • 14. NUNC 96-well V bottom polypropylene plates, Applied Scientific Catalog #AS-72092 • 15. EDTA: mix 14.12 g ethylenediaminetetraacetic acid (EDTA) to approx. 70 ml dH2O. Add 10 N NaOH until EDTA dissolves. Adjust pH to 8.0. Adjust total volume to 100 ml with dH2O. • 16. 1^0 Antibody Dilution Buffer: mix 10 ml of 5% BSA in PBS buffer with 89.5 ml TBST. • 17. Anti-phosphotyrosine monoclonal antibody conjugated to horseradish peroxidase (PY99 HRP, Santa Cruz Biotech). • 18. 2,2′-Azinobis(3-ethylbenzthiazoline-6-sulfonic acid (ABTS, Moss, Cat. No. ABST). • 19. 10% SDS. Procedure: • 1. Coat Corning 96-well ELISA plates with 2 μg of polyEY peptide in sterile PBS as described in step 3 of Materials and Reagents. • 2. Remove unbound liquid from wells by inverting plate. Wash once with TBST. Pat the plate on a paper towel to remove excess liquid. • 3. Add 100 μl of 1% BSA in PBS to each well. Incubate, with shaking, for 1 hr. at room temperature. • 4. Repeat step 2. • 5. Soak wells with 50 mM HEPES (pH7.5) (150 μl/well). • 6. Dilute test compound with dH2O/4% DMSO to 4 times the desired final assay concentration in 96-well polypropylene plates. • 7. Add 25 μl diluted test compound to ELISA plate. In control wells, place 25 μl of dH2O/4% DMSO. • 8. Add 25 μl of 40 mM MnCl2 with 4×ATP (2 μM) to each well. • 9. Add 25 μl 0.5M EDTA to negative control wells. • 10. Dilute GST-Flk1 to 0.005 μg (5 ng)/well with KDB. • 11. Add 50 μl of diluted enzyme to each well. • 12. Incubate, with shaking, for 15 minutes at room temperature. • 13. […]

T1 sequence (P09619 33-1106, species assumed): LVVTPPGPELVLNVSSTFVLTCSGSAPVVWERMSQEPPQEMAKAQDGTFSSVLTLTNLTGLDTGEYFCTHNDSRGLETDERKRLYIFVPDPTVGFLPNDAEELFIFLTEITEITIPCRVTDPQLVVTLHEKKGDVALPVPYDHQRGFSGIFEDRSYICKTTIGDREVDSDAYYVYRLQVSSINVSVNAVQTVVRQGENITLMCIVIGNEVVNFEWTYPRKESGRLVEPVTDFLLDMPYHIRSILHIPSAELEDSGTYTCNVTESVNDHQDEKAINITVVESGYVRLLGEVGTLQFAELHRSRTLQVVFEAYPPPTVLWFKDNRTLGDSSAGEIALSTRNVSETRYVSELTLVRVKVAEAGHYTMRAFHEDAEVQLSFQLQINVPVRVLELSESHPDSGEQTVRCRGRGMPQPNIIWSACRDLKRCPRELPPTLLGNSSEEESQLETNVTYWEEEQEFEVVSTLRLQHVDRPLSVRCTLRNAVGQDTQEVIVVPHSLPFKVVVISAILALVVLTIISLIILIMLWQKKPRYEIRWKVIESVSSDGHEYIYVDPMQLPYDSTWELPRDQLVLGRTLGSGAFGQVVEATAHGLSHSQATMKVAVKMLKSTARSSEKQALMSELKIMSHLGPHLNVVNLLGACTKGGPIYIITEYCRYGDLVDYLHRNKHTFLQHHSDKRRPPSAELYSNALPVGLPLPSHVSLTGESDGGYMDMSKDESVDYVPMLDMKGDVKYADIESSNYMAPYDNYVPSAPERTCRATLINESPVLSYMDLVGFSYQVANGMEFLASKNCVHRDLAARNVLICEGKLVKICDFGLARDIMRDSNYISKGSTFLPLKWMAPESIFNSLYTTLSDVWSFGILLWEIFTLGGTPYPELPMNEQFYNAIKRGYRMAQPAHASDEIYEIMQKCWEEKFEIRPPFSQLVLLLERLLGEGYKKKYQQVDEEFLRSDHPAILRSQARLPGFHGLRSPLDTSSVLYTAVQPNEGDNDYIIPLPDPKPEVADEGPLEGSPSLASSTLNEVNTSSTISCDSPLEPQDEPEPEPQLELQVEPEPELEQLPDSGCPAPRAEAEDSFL

SMILES	IC50 (PDGFR) [µM]	IC50 (GST-Flk1) [µM]
CCN(CC)CC(=O)Nc1cccc(Nc2cnc(-c3ccsc3)cn2)c1 [Example 41, N-(3-(5-(thiophen-3-yl)pyrazin-2-ylamino)phenyl)-2-(diethylamino)acetamide]	> 20	> 20
CC(=O)Nc1ccc(Nc2ncc(-c3cccs3)cn2)cc1 [Example 13, N-[4-(5-thien-2-ylpyrimidin-2-ylamino]phenyl]acetamide]	0.44	9.86
CC(=O)Nc1ccc(Nc2ncc(-c3ccsc3)cn2)cc1 [Example 2, N-{4-[(5-thien-3-ylpyrimidin-2-yl)amino]phenyl}acetamide]	0.07	3.74
O=C(CNCC(O)CN1CCOCC1)Nc1cccc(Nc2ncc(-c3ccsc3)cn2)c1 (stereo not drawn) [Example 59, 2-(2-hydroxy-3-morpholin-4-yl-propylamino)-N-[3-(5-thiophen-3-yl-pyrimidin-2-ylamino)-phenyl]-acetamide]	0.09	2.7
CCN(CC)c1cccc(Nc2ncc(-c3ccsc3)cn2)c1 [Example 38, N,N-diethyl-N′-(5-thien-3-ylpyrimidin-2-yl)benzene-1,3-diamine]	1.8	3
O=C(O)c1cccc(Nc2ncc(-c3cccs3)cn2)c1 [Example 17, 3-[(5-thien-2-ylpyrimidin-2-yl)amino]benzoic acid]	15.2	> 20
O=C(NCCN1CCOCC1)Nc1cccc(Nc2ncc(-c3ccsc3)cn2)c1 [Example 49]	0.14	1.9
Cc1ccc(Nc2ncc(-c3ccsc3)cn2)cc1NC(=O)c1ccc(CN2CCN(C)CC2)cc1 [Example 40, 4-(4-methyl-piperazin-1-ylmethyl)-N-[2-methyl-5-(5-thiophen-3-yl-pyrimidin-2-ylamino)-phenyl]-benzamide]	2.6	10
O=C(NCCN1CCOCC1)Nc1ccc(Nc2ncc(-c3ccsc3)cn2)cc1 [Example 31, N-(2-morpholin-4-ylethyl)-N′-{4-[(5-thien-3-ylpyrimidin-2-yl)amino]phenyl}urea]	0.78	5.2
Nc1ccc(C(=O)Nc2ccc(Nc3ncc(-c4cccs4)cn3)cc2)cc1 [Example 16, 4-amino-N-{4-[(5-thien-2-ylpyrimidin-2-yl)amino]phenyl}benzamide]	0.99	> 20
O=C(CN1CCOCC1)Nc1cccc(Nc2cnc(-c3ccsc3)cn2)c1 [Example 42, 2-morpholin-4-yl-N-{3-[(5-thien-3-ylpyrazin-2-yl)amino]phenyl}acetamide]	> 20	> 20

The next lines start with the values.

IC50 (PDGFR) [µM]	IC50 (GST-Flk1) [µM]	SMILES
0.41	4.5	O=C(CN1CCCC1CN1CCCC1)Nc1ccc(Nc2ncc(-c3ccsc3)cn2)cc1 (stereo not drawn) [Example 22, 2-[2-(pyrrolidin-1-ylmethyl)pyrrolidin-1-yl]-N-{4-[(5-thien-3-ylpyrimidin-2-yl)amino]phenyl}acetamide]
0.47	5.4	CN1CCN(C(=O)Nc2ccc(Nc3ncc(-c4ccsc4)cn3)cc2)CC1 [Example 35, 4-methyl-N-{4-[(5-thien-3-ylpyrimidin-2-yl)amino]phenyl}piperazine-1-carboxamide]
0.06	2.4	O=C(CNCCN1CCS(=O)(=O)CC1)Nc1cccc(Nc2ncc(-c3ccsc3)cn2)c1 [Example 60, 2-[2-(1,1-dioxo-1λ^6-thiomorpholin-4-yl)-ethylamino]-N-[3-(5-thiophen-3-yl-pyrimidin-2-ylamino)-phenyl]-acetamide]
> 20	> 20	O=C(Nc1ccccc1)c1cccc(Nc2ncc(-c3cccs3)cn2)c1 [Example 18, N-phenyl-3-[(5-thien-2-ylpyrimidin-2-yl)amino]benzamide]
0.53	5.7	CCN(CC)CCNC(=O)Nc1ccc(Nc2ncc(-c3ccsc3)cn2)cc1 [Example 32, N-[2-(diethylamino)ethyl]-N′-{4-[(5-thien-3-ylpyrimidin-2-yl)amino]phenyl}urea]
> 20	> 20	COc1ccc(NC(=O)Nc2ncc(-c3ccsc3)cn2)cc1 [Example 9, N-(4-methoxyphenyl)-N′-(5-thien-3-ylpyrimidin-2-yl)urea]
1.1	5.6	O=C(CN1CCOCC1)Nc1ccc(Nc2ncc(-c3ccsc3)cn2)cc1 [Example 26, 2-morpholin-4-yl-N-{4-[(5-thien-3-ylpyrimidin-2-yl)amino]phenyl}acetamide]
0.56	3.7	CC(C)Nc1cccc(Nc2ncc(-c3ccsc3)cn2)c1 [Example 37, N-isopropyl-N′-(5-thien-3-ylpyrimidin-2-yl)benzene-1,3-diamine]
0.15	2	c1cc(Nc2ncc(-c3ccsc3)cn2)cc(N2CCOCC2)c1 [Example 39, N-(3-morpholin-4-ylphenyl)-5-thien-3-ylpyrimidin-2-amine]
0.2	2.8	O=C(CN1CCCC1)Nc1cccc(Nc2ncc(-c3ccsc3)cn2)c1 [Example 62, 2-pyrrolidin-1-yl-N-[3-(5-thiophen-3-yl-pyrimidin-2-ylamino)-phenyl]-acetamide]
0.26	2.52	CN1CCN(Cc2ccc(C(=O)Nc3ccc(Nc4ncc(-c5ccsc5)cn4)cc3)cc2)CC1 [Example 12, 4-[(4-methylpiperazin-1-yl)methyl]-N-{4-[(5-thien-3-ylpyrimidin-2-yl)amino]phenyl}benzamide]
> 20	> 20	O=C(Nc1ccc(F)cc1)Nc1ncc(-c2ccsc2)cn1 [Example 10, N-(4-fluorophenyl)-N′-(5-thien-3-ylpyrimidin-2-yl)urea]
0.06	1.53	Nc1cccc(Nc2ncc(-c3ccsc3)cn2)c1 [Example 6, N-(5-thien-3-ylpyrimidin-2-yl)benzene-1,3-diamine]
0.55	4.14	Nc1ccc(Nc2ncc(-c3ccsc3)cn2)cc1 [Example 8, N-(5-thien-3-ylpyrimidin-2-yl)benzene-1,4-diamine]
0.19	2.7	O=C(CN1CCC(N2CCCC2)CC1)Nc1cccc(Nc2ncc(-c3ccsc3)cn2)c1 [Example 55, 2-(4-pyrrolidin-1-yl-piperidine-1-yl)-N-[3-(5-thiophen-3-yl-pyrimidin-2-ylamino)-phenyl]-acetamide]
0.18	2.3	O=C(Nc1cccc(Nc2ncc(-c3ccsc3)cn2)c1)N1CCC(N2CCCC2)CC1 [Example 54, 4-pyrrolidin-1-yl-piperidine-1-carboxylic acid [3-(5-thiophen-3-yl-pyrimidin-2-ylamino)-phenyl]-amide]

— patent US20070293484A1, “Thiophene Heteroaryl Amines” (SUGEN, INC., priority 2004, published 2007)
